{"source": "paper PMC6956804", "about": "“Potent antibacterial activity of MSI-1 derived from the magainin 2 peptide against drug-resistant bacteria” (Theranostics, 2020)", "key": {"[1]": {"assay": "pH stability", "assay_type": "physicochemical", "experimental": "MSI-1 at 2 mg/ml in PBS (pH 7.0), aqueous HCl (pH 3.0) and aqueous NaOH (pH 11.0) were incubated for 2, 4, 12 and 24 h at 37 °C. The remaining MSI-1 was measured by HPLC. In addition, the bacteria colonies survived 1× MIC of HCl or NaOH treated peptide were recorded simultaneously. That is, after 18 h coincubation, the absorbance which represents the bacteria colonies survived, was recorded by a microplate reader at 600 nm."}, "[2]": {"test_system": "E. coli genomic DNA", "assay": "Gel retardation assay, DNA binding", "conditions": "15 min, 1% agarose gel", "experimental": "Bacterial genomic DNA was obtained by a BacteriaGen DNA Kit and quantified by a Thermo Scientific NanoDrop™ 2000c Spectrophotometer. Bacterial genomic DNA samples were incubated with isovolumetric MSI-1 at room temperature for 15 min. The gel retardation assay for DNA shift was performed by 1% w/v agarose gel (pre-stained by SYBR Green I) electrophoresis. In UV spectroscopic study, different concentrations of peptide were titrated into genomic DNA (0.5 μg/ml). After 15 min to equilibrate, the UV spectra for DNA and MSI-1-DNA complex were recorded at wavelength range of 230-350 nm. In addition, DNA dissolved in Tris-HCl (pH 7.4, CDNA=0.1 mg/ml) was mixed with EB solution (5 μM). After 10 min incubation in the dark, the EB-DNA mixture was added with different concentrations of MSI-1. Thirty minutes later, the fluorescence spectra were recorded at excitation wavelength 535 nm to measure the competitive binding of MSI-1 and EB with bacterial DNA. […] Secondary structure change of E. coli DNA was analyzed. Moreover, the intracellular changes in E. coli morphology was observed by a JEOL 1230 transmission electron microscopy (TEM) after 2 h coincubation with MSI-1."}, "[3]": {"test_system": "HaCaT cells", "assay": "Wound scratch assay", "assay_type": "cell-based", "conditions": "cell scratch assay", "experimental": "To further investigate whether MSI-1 could protect from bacterial infection of the skin, mice were anesthetized with pentobarbital sodium (50 mg/kg, i.p) and shaved on the dorsal surfaces. The depilated skin was secured with 2-cm-diameter plastic containers that filled up with boiling water at contact time 10 s. Afterwards, a full-thickness wound (2 cm in diameter) was cut on the burned skin of each mouse. Penicillin-resistant E. coli suspension (100 µl, 1× 10^10 CFU/ml) was slowly inoculated over wound with a pipette tip, and a gentle stream of air was aimed over the inoculation site until skin appeared wet but absent of any standing volume from the inoculum suspension. Two hours later, vehicle (3% CMC-Na), MSI-1 or polymyxin, which was suspended in sterile CMC-Na (3%) in PBS at concentration of 10, 5, 2.5 mg/ml (MSI-1) or 5 mg/ml (polymyxin), was inoculated on the same area with a pipette tip, 1 ml/kg, once a day (n=15 per group). Mice were fed in cages individually to avoid cross infection and were treated daily for 7 consecutive days. At 3rd and 7th days, cutaneous wound healing and bacteria counts in skin lesion were measured. Moreover, 12 h after the last treatment, blood samples were collected from the retro-orbital venous plexus under anesthesia (pentobarbital sodium, 50 mg/kg). […] The contents of TNF-α and IL-6 in skin homogenates and serum were measured by ELISA. […]"}, "[4]": {"test_system": "ndm-1-carrying recombinant E. coli", "assay": "Time-killing assay", "assay_type": "cell-based", "conditions": "4× MIC, time-kill curve", "experimental": "(§1) Bacteria were incubated with MSI-1, penicillin G sodium salt, vancomycin or methicillin at 4× MIC. Samples were removed at 0, 0.5, 1, 2, 4, and 8 h for bacterial counts."}, "[5]": {"test_system": "S. epidermidis (methicillin-resistant)", "assay": "Time-killing assay", "assay_type": "cell-based", "conditions": "4× MIC, time-kill curve", "experimental": "as §1"}, "[6]": {"test_system": "E. coli", "assay": "ONPG assay, release of cytoplasmic β-galactosidase", "assay_type": "cell-based", "conditions": "2 h", "experimental": "(§2) E. coli were mixed with different concentrations of MSI-1, incubated for 2 h, resuspended by PI solution (20 μg/ml), and ultimately subjected to flow cytometry for PI uptake assay. Calcein-loaded liposomes were prepared to imitate bacterial membrane. Serially diluted peptide was added into liposomes (1:1, v:v) after obtaining the fluorescence intensity at λex/λem=490/520 nm. Once MSI-1 addition, fluorescence intensity was detected at 0, 3, 5, 10, 15 and 20 min. Calcein release rate was calculated as previously described. To observe bacterial morphology, E. coli treated with MSI-1 (32 μg/ml) or PBS for 2 h was collected, fixed by 2.5% glutaraldehyde and subjected to scanning electron microscopy (SEM) assay (SUI510, Hitachi, Japan). In addition, E. coli were resuspended in reaction buffer (60 mM Na2HPO4^. 7H2O, 40 mM NaH2PO4^. H2O, 10 mM KCl, 1 mM MgSO4.7H2O, 0.27% 2-Mercaptoethanol), incubated with ONPG (2.5 mg/ml) and MSI-1 for 2 h. Bacteria envelope integrity was calculated by the percentage of O-nitrophenol production."}, "[7]": {"assay": "Plasma stability", "assay_type": "in vitro ADME, mouse", "conditions": "for antibacterial activities after plasma incubation: turbidimetry", "from_the_text": "(§3) At indicated time points, samples were denatured with equal volumes of 6 M urea and subjected to HPLC analysis or antibacterial activity evaluation."}, "[8]": {"test_system": "E. coli", "assay": "PI uptake assay, flow cytometry", "assay_type": "cell-based", "conditions": "4× MIC, 2 h", "experimental": "as §2"}, "[9]": {"assay": "in vitro", "conditions": "mouse, 20% fresh mouse serum", "from_the_text": "as §3"}, "[10]": {"assay": "Calcein release from liposomes", "conditions": "4× MIC", "experimental": "as §2"}, "[11]": {"test_system": "C57BL/6 mice", "assay": "Acute toxicity in mice", "assay_type": "in vivo", "conditions": "intraperitoneal, n=6/group", "experimental": "C57BL/6 mice (n=6/group) were intraperitoneally injected with MSI-1 (0, 10, 20, 40, 80 and 100 mg/kg/body weight, respectively). Animals were inspected for adverse effects for 30 min, and survival was monitored for 12 h thereafter. The toxicity severity was classified as Malik U et al previously described."}, "[12]": {"conditions": "37 °C for up to 7 days, multigelation at -80 °C for 10 times or boiling at 100 °C for 1 h; HPLC and antibacterial activity", "method": "MSI-1 were placed at 37 °C for 7 days, repeated multigelation at -80 °C for 10 times or boiled at 100 °C for 1 h, and then subjected to HPLC analysis or antibacterial activity evaluation as above."}}, "note": "Peptide text beside a SMILES is read from it.", "data": [{"smiles": "CC[C@H](C)[C@H](NC(=O)CN)C(=O)N[C@@H](Cc1c[nH]c2ccccc12)C(=O)N[C@@H](CCCCN)C(=O)N[C@@H](Cc1ccccc1)C(=O)N[C@@H](CC(C)C)C(=O)N[C@@H](CCCCN)C(=O)N[C@@H](CCCCN)C(=O)N[C@@H](C)C(=O)N[C@@H](CCCCN)C(=O)N[C@@H](CCCCN)C(=O)N[C@@H](Cc1ccccc1)C(=O)N[C@@H](Cc1c[nH]c2ccccc12)C(=O)N[C@@H](CCCCN)C(N)=O", "note": "[MSI-1] (H-GIWKFLKKAKKFWK-NH2)", "values": [{"measurement": "percentage of remaining MSI-1", "setting": "[1]; 2 mg/ml in aqueous HCl (pH 3.0), aqueous NaOH (pH 11.0) or PBS (pH 7.0), 37 °C, within 24 h, HPLC", "result": "99%-100%"}, {"measurement": "effect of HCl (pH 3.0) and NaOH (pH 11.0) treatment on MIC against bacteria", "setting": "[1]; treated peptide at 1× MIC, 18 h, 600 nm", "result": "did not affect the MIC"}, {"measurement": "dose at which the peptide bound to genomic DNA", "setting": "[2]; 1/4× MIC", "result": 2, "unit": "µg/mL"}, {"measurement": "peptide concentration at which electrophoretic movement of DNA was completely inhibited", "setting": "[2]", "result": "higher than 4 μg/ml"}, {"measurement": "migration of HaCaT cells", "setting": "[3]", "result": "could not promote the migration"}, {"measurement": "time to thorough elimination of the bacteria", "setting": "[4]", "result": "≤ 4", "unit": "h"}, {"measurement": "reduction in CFU counts", "setting": "[5]", "result": "approximately 5 log units"}, {"measurement": "time to thorough bacteria elimination", "setting": "[5]", "result": "≤ 240", "unit": "min"}, {"measurement": "activity in the supernatants (β-galactosidase release, relative to sonicated bacteria)", "setting": "[6]; 2× MIC", "result": 36.7, "unit": "%"}, {"measurement": "activity in the supernatants (β-galactosidase release, relative to sonicated bacteria)", "setting": "[6]; 4× MIC", "result": 80.7, "unit": "%"}, {"measurement": "remaining at 0.5 h, 1.6 mg/ml", "setting": "[7]; 20% fresh mouse plasma, 37 °C, 0.5 h, HPLC, read-out: remaining peptide", "result": "~77", "unit": "%"}, {"measurement": "remaining peptide", "setting": "[7]; 20% fresh mouse plasma, 37 °C, 2 h, HPLC", "result": "~67.5", "unit": "%"}, {"measurement": "antibacterial activities after plasma incubation", "setting": "[7]; 20% fresh mouse plasma, 0.5 h", "result": 97.2, "unit": "%"}, {"measurement": "antibacterial activities after plasma incubation", "setting": "[7]; 20% fresh mouse plasma, 2 h", "result": 60.7, "unit": "%"}, {"measurement": "bacteriostatic activity", "setting": "[7]; either mouse plasma or serum, post 2 h coincubation (summary in the discussion)", "result": "approximately 50%"}, {"measurement": "remaining at 2 h, 1.6 mg/ml", "setting": "[7]; fresh mouse plasma or serum (one summary value for both), either mouse plasma or serum, post 2 h coincubation (summary in the discussion), read-out: remaining peptide", "result": 60, "unit": "%"}, {"measurement": "PI-positive rate", "setting": "[8]", "result": 80.4, "unit": "%"}, {"measurement": "remaining at 0.5 h, 1.6 mg/ml", "setting": "[9]", "result": 92.5, "unit": "%"}, {"measurement": "remaining at 2 h, 1.6 mg/ml", "setting": "[9]", "result": 53.5, "unit": "%"}, {"measurement": "leakage of Calcein", "setting": "[10]", "result": "over 80%"}, {"measurement": "adverse events", "setting": "[11]; 20 mg/kg", "result": "no immediate adverse events"}, {"measurement": "adverse effects at approximately 5 min post injection", "setting": "[11]; dose of peptide above 40 mg/kg", "result": "one mouse in the MS-1-treated group exhibited narrowing of the eyes"}, {"measurement": "thermal stability", "setting": "[12]", "result": "maintained its structure and potent antimicrobial activity"}]}]}
